Marks after values point to notes of the source that are not given here.
How the values were obtained:
[1] = test system: Salmonella typhimurium strains TA100 and TA98; assay: Ames MPF 98/100 Mutagenicity Assay; assay type: cell-based; settings: up to 100 μM, +/−S9, FIG. 12
Method: The compound 12 was tested using Ames MPF™ 98/100 Mutagenicity Assay kit (Aniara, Ohio) that is employing Salmonella typhimurium strains TA100 (for the detection of base substitution mutations) and TA98 (for the detection of frameshift mutations) according to the instructions for use.

[2] = test system: ARR5:GUS reporter gene; assay: Induction of cytokinin reporter ARR5:GUS in transgenic Arabidopsis plants; assay type: in vivo; settings: 0.01-10 μM, 17 h, FIG. 2
Method: Cytokinins induce in Arabidopsis transcription of gene ARR5, a member of A-type response regulator family classified as cytokinin primary response genes being expressed down-stream of sensing by cytokinin receptors. We cultivated transgenic Arabidopsis plants harbouring PARR5::GUS reporter (D'Agostino et al. Plant Physiol. 124: 1706-1717, 2000) in MS medium containing cytokinin BAP, CKX inhibitor INCYDE and novel compounds 12 and 91 in concentrations 0.01, 0.1, 1, 5, 10 μM; DMSO (0.1%) was tested as solvent control. Seeds were surface-sterilized in 70% ethanol and then placed into wells of 6-well microtiter plate (TPP, Switzerland) containing 3 mL of MS medium in each well. After sowing plates were pretreated in dark at 4° C. to synchronize the germination of the seeds. […] Quantitative estimation of the level of ARR5:GUS gene induction was done according to method published by Romanov et al. (Romanov et al. FEBS Letters 515: 39-43, 2002). After extraction of proteins the GUS activity was determined using incubation with fluorogenic substrate MUG (4-methylumbelliferyl glucuronid; 1 h, 37° C.) and then fluorescence 365 nm and 460 nm (excitation and emission wavelengths) was recorded, as described in detail by Spíchal et al. (Spíchal et al. Plant and Cell Physiology 45: 1299-1305, 2004).

[3] = test system: maize (hybrid Amadeo); assay: Seed coating, shoot and root growth of maize (pot experiment); assay type: in vivo
Method: The drenching experiments with model plant Arabidopsis pointed to potential application of compound 12 in stimulation of plant growth and development when the roots of the plants are exposed to the chemical. […] In the year 2011 pot experiment was performed with maize (hybrid Amadeo; KWS, FAO 230). The seeds were coated with 10 and 50 μM concentration of compound 12 mixed into seed treatment agent Cruiser OSR (Syngenta; 8 L of solution per 1000 kg of seeds). Seeds coated with only Cruiser OSR were used for control variant. The seeds were dried and then sown into the soil, one plant per 15 L pot (30 plants were used per variant). The plants were harvested after app. one month in stage DC 18 (eight leafs per plant). The shoots and the roots of each plant were separated and dried. The weight of dry shoot and root biomass was recorded. […] The plants, which seeds were coated with the lower concentration of compound 12, formed 2-times higher root dry biomass and 2.75-times higher shoot dry biomass. In total this was reflected by 2.3-times increase of the total plant dry weight.

[4] = test system: winter wheat variety Diadem; assay: Seed coating, tillering of winter wheat (field experiment); assay type: in vivo; settings: for Number of medium tillers (% of control) / Number of productive tillers (% of control) / Number of weak tillers (% of control): Olomouc, 2012
Method: To evaluate the effect of seed coating with compound 12 on morphological yield forming traits of winter wheat field plot experiment was performed in year 2012 on locality Olomouc, Czech Republic. Seeds of winter weat bakery variety Diadem (Selgen) were coated with 10 and 50 μM concentration of compound 12 mixed into seed treatment agent Cruiser 350FS (Syngenta; 10 L of solution per 1000 kg of seeds), seeds coated with only Cruiser 350FS were used for control variant. The seeds were dried and then sown in the sowing rate 3.500.000 seeds per hectare in 4 replications per each variant in randomized positions (each replication was 10 square meter plot). The plants were analyzed for number of productive tillers, medium tillers and weak tillers.

[5] = test system: winter rapeseed variety Benefit; assay: Seed coating, emergence and freezing tolerance of winter rapeseed (field experiment); assay type: in vivo; settings: 50 μM seed coating
Method: To evaluate the effect of seed coating with compound 12 on yield forming traits of winter rapeseed field plot experiment was performed in season 2010/2011 on locality Opava, Czech Republic. Seeds of winter rapeseed variety Benefit (Selgen) were coated with 50 μM concentration of compound 12 mixed into the seed coating treatment Cruiser OSR (Syngenta; 15 L of solution per 1000 kg of seeds), seeds coated with only Cruiser OSR were used for control variant. The seeds were dried and then sown in the sowing rate 700.000 seeds per hectare in 4 replications per each variant in randomized positions (each replication was 10 square meter plot). In the experiment plant emergence, freezing tolerance and final seed yield were scored. The frost tolerance was estimated by method described in (Janáček, J., Prášil, I.: Quantification of plant frost injury by nonlinear fitting of an s-shaped function. Cryo-Letters vol. 12, 1991, no. 7, 47-52).

[6] = test system: wild-type Arabidopsis plants; assay: In vitro root growth of wild-type Arabidopsis plants; assay type: in vivo; settings: 0.1 μM in MS medium, FIG. 6
Method: As shown in previous example presence of compound 12 in the growth medium has positive effect on the root growth of cytokinin-deficient Arabidopsis plants. This effect was further studied using wild-type Arabidopsis plants and compared with biologically and structurally relevant compounds, a cytokinin BAP and a CKX inhibitor INCYDE. […] Arabidopsis seedlings were grown in vitro on a standard MS medium containing 0.1 μM cytokinin BAP, the same concentration of compound 12 and the same concentration of CKX inhibitor INCYDE (2-chloro-6-(3-methoxyanilino)purine).

[7] = seed coating, lower concentration (10 μM), stage DC 18

`COc1cccc(Nc2nc(Cl)nc3c2ncn3C2CCCCO2)c1` (stereo not drawn) [compound 12, 2-chloro-6-(3-methoxyanilino)-9-(tetrahydropyran-2-yl)purine] was tested, and the “mutagenic potential in Ames test” value [1] was “did not score positively”, the “induction of ARR5:GUS expression” value [2] was “dose-dependent induction of ARR5:GUS expression” and the “effect on shoot and root dry biomass” value ([3]; seed coating 10 and 50 μM, FIG. 10) was “dose-dependent stimulatory effect”. For the same molecule, the “increase of the total plant dry weight” value [3, 7] was 2.3 times, the “root dry biomass, times higher than control” value [3, 7] was 2 times and the “shoot dry biomass, times higher than control” value [3, 7] was 2.75 times. The “Number of medium tillers (% of control)” value ([4]; 10 μM) was 75.0* % of control, the “Number of productive tillers (% of control)” value ([4]; 10 μM) was 106.5 % of control and the “Number of weak tillers (% of control)” value ([4]; 10 μM) was 102.2 % of control. The “Number of medium tillers (% of control)” value ([4]; 50 μM) was 78.1* % of control, the “Number of productive tillers (% of control)” value ([4]; 50 μM) was 124.2** % of control and the “Number of weak tillers (% of control)” value ([4]; 50 μM) was 80.4 % of control. The “number of productive tillers compared to untreated control” value ([4]; 10 and 50 μM) was 106-124%, the “Estimated frost resistence (atrifical frost test) - Letal Temperature LT50” value [5] was −12.3 * and the “Number of emerged plants per sq meter - autumn (11th October, 2010)” value [5] was 60.0 per sq meter. The “Plant height (cm) - autumn (11th October, 2010)” value [5] was 6.6 cm, the “Seed yield (% of control)” value [5] was 103.1 % of control and the “increase of artificially estimated frost tolerance” value [5] was roughly 5%. The “increase of the final seed yield” value [5] was 3.1%, the “more plants emerged in the same time compared to control” value [5] was roughly 20% and the “Leafs weight - autumn (22th October)” value ([5]; 15 plants) was 11.69**. The “Root lenght (cm) - autumn (22th October)” value ([5]; 15 plants) was 14.63 cm, the “Seed yield (t/ha)” value ([5]; mean from 4 plots) was 5.98 t/ha and the root growth [6] was “positive effect on the root length and lateral branching”.

Reference: patent publication US10662194B2, “Substituted 6-anilino-9-heterocyclylpurine derivatives for inhibition of plant stress” (UNIVERZITA PALACKEHO V OLOMOUCI, priority 2014, dated 2020)
